We go through seven compounds from patent US20080118576A1, “PREDICTION OF AN AGENT'S OR AGENTS' ACTIVITY ACROSS DIFFERENT CELLS AND TISSUE TYPES” (priority 2006, published 2008).

A value given as a limit tells only on which side of the number the result lay.

Test [1] has as its system 40 human urothelial (bladder) cancer cell lines. Description: Alamar Blue growth inhibition of 40 bladder cancer cell lines, single drugs, 72 hours. The test is classed as cell-based. The note with it: for criterion dose (CR): minimum dose at which at least 25% of cell lines showed growth inhibition >50%; for number of resistant cell lines / number of sensitive cell lines: of 40 bladder cancer cell lines; for number of sensitive cell lines: log10(GI50) ≤ CR. The protocol: The human bladder cancer cell lines and the respective growth conditions used in this study have been previously described (6, 7). Cisplatin was purchased from Sigma (St. Louis, Mo.), dissolved in Dulbecco's phosphate-buffered saline, and aliquoted in 1 mg/ml stocks. Paclitaxel was purchased from Sigma (St. Louis, Mo.), dissolved in Dimethyl Sulphoxide (DMSO), and aliquoted in 1 mM stocks. Gemcitabine was purchased from the University of Virginia Medical Center Pharmacy, dissolved in PBS, and aliquoted in 0.1 M stocks. Cell lines were maintained in appropriate media, in a humidified atmosphere containing 5% CO2 in air, except CRL2169 (SW780) which requires no CO2 for its growth. Cell lines were subcultured in an aqueous solution of 0.05% trypsin (Difco, 1:250) and 0.016% EDTA. Each cell line was used within 10 passages from its archival passage number in order to minimize any long term cell culture effects. Gene expression analysis of bladder cell lines was carried out as previously described using the HG-U133A GeneChip® array (Affymetrix®, Santa Clara, Calif., USA) (6, 7). The image file was analyzed with RMA, to obtain the expression intensity values of the microarray data (8).
Cell lines were seeded in 96-well cell culture plates (Costar) at a density of 1000 cells/well. 24 hours later, cells were exposed to the drugs diluted in RPMI-1640 medium, containing 10% FBS, concentration that is required by more than 75% of cell lines for their normal growth, at a total volume of 200 μL. Each drug dose was plated in triplicate, and the experiment was repeated four to seven times. The doses for Cisplatin were 200, 400, 800, 1600, 3200, and 6400 ng/ml; for Paclitaxel 0.0001, 0.001, 0.002, 0.005, 0.01, and 0.1 μM; for Gemcitabine 0.001, 0.01, 0.1, 1, 10, 100 μM.
From the dose-response data, log 10(GI50) values (log base 10 of concentration required to inhibit cell growth by 50% in comparison with untreated control) were estimated for all the cell lines by deriving log(dose) concentration curves on cell count percents as described below. To estimate the GI50 values reliably, we computed Euclidean distances among all replicated experiments, and excluded outlying experiments if they were in the top 20% among all measured distances. This percent was determined heuristically based on the general observations in experimental quality control. […] Subsequently, the data were fitted to a sigmoidal function such as the following nonlinear regression model for estimating each cell line's dose response curve:
Percent=1−1/(1+exp(−(log 10(dose)−β)/α),
where α and β determine the shape of a fitted line.
This sigmoidal regression function was used to capture the natural shapes of drug dose responses. Thus, the estimated β is the predicted log 10(GI50) value, the expected log concentration achieving the cell count reduction of 50%. Similarly, log 10(GI30), and log 10(GI70) values, i.e. the concentrations required to inhibit cell growth by 30%, and 70% in comparison with untreated control, were also calculated.
Cell line drug sensitivity was classified using the GI estimates and application of a criterion dose (CR) concept. […] Using these CR concentrations, each cell line was defined as sensitive if log 10(GI50)≦CR; strongly sensitive if […], or resistant if log 10(GI70)>CR, and intermediate if log 10(GI50)>CR and log 10(GI70)<CR.
To approach the development of molecular models of chemotherapeutic sensitivity in human bladder cancer, we focused on a well-defined series of 40 urothelial cell lines for which we could measure sensitivity to relevant chemotherapeutic agents in vitro and correlate these responses with global measurements of gene expression.
(Resazurin is reduced to fluorescent resorufin, in cell work by metabolically active cells.)

Test [2] has as its system BLA-40 human bladder cancer cell lines. Description: In vitro growth inhibition (GI50) in BLA-40 cells, 48 hours, as for NCI-60. The note with it: for potency in BLA-40 compared with NCI-60 tissue panels: BLA-40 vs nine tissue-specific panels of NCI-60. The class given is cell-based. From the text: Sensitivity of human bladder cancer cells to cisplatin, paclitaxel and NSC 637993. To test the predictive models, we performed in vitro drug response experiments, and then determined GI50 values for each bladder cell line for cisplatin, paclitaxel, and compound NSC 637993 (Supplementary Materials and Methods). Sensitivity to the agents was generated by a dose response experiments carried out on the BLA-40 cells as described for the NCI-60. The final concentrations of cisplatin used were 200, 400, 800, 1600, 3200, and 6400 ng/ml; those of Paclitaxel and NSC 637993 were 0.1, 1, 2, 5, 10, and 100 nM. In each case, the cells were plated on Day 0, exposed to drug for 48 hours) at 37° C., and then assayed. Each experiment was repeated three to five independent times, and the results were expressed as a fraction of the difference between initial cell count and untreated control. Log 10(GI50) values were then estimated from the resulting dose-response curves. Bladder cell lines were defined as sensitive or resistant as described above for the NCI-60 panel. […]
In the first application of the COXEN algorithm, for example, Cell Sets 1 and 2 were the NCI-60 and BLA-40 cell panels, respectively; the Step 1 drug activities were those assessed by DTP in the NCI-60 using a 48-hour sulforhodamine B assay; the “molecular characteristic” in Steps 2 and 4 was transcript expression level, as assessed using Affymetrix HG-U133A microarrays; the algorithm in Step 3 was “Significance Analysis of Microarrays (SAM)” or two-sample t-test; Step 5 was a novel “co-expression extrapolation” algorithm; Step 6 was another novel algorithm, “Misclassification-Penalized Posterior” (MiPP), which we recently introduced for selection of the best mathematical “models” for the prediction; and applying the prediction models obtained in Step 6, independent testing of the predictions on BLA-40 cells was performed, mimicking the way the assay for the NCI-60 by DTP.

Another test concerns breast cancer. The conditions noted are these: cited from earlier work.
For the next test, the system named is bladder cancer. The conditions noted are these: cited from earlier work.
The next test deals with breast cancer patients. The note with it: 24 patients, four cycles of neoadjuvant docetaxel, original study; cited from earlier work.
The subject of test [3] is estrogen receptor-positive breast cancer patients. Kind of test: TAM-60 breast cancer clinical trial, time to recurrence classification. The class given is in vivo, human. The conditions noted are these: of 60 patients. As to the method: In the tamoxifen clinical trial (TAM-60), 60 postmenopausal breast cancer patients with estrogen receptor-positive tumors were treated and followed for up to 180 months. Genome-wide expression profiling was performed on the primary tumors using a customized cDNA microarray platform.

`Nc1ccn([C@@H]2O[C@H](CO)[C@@H](O)C2(F)F)c(=O)n1` [Gemcitabine]: in test [1], the “criterion dose (CR)” value was 0.1 µM, the “number of resistant cell lines” value turned out to be 11 and the “number of sensitive cell lines” value is 8.
For the compound `CCN(CC)CCNc1ccc2nc(C)n3c4ccc(OC)cc4c(=O)c1c23` [NSC 637993], the “proportion of BLA-40 cell types with GI50 less than 10-6M” value in test [2] (BLA-40 panel) is reported as above 60%. In addition, the results for the “potency in BLA-40 compared with NCI-60 tissue panels” value in test [2] and in test [2] (listed as NSC637993) were “more effective at a lower dose (1×10^−6M) in bladder cancer” and “more potent overall in the BLA-40 bladder cancers than in any of the organ-of-origin types included in the NCI-60”, respectively.
Regarding `CC(=O)O[C@H]1C(=O)[C@@]2(C)[C@H]([C@H](OC(=O)c3ccccc3)[C@]3(O)C[C@H](OC(=O)[C@H](O)[C@@H](NC(=O)c4ccccc4)c4ccccc4)C(C)=C1C3(C)C)[C@]1(OC(C)=O)CO[C@@H]1C[C@@H]2O` [Paclitaxel], in test [1], the “criterion dose (CR)” value amounted to 0.005 µM, the “number of resistant cell lines” value came to 11 and the “number of sensitive cell lines” value turned out to be 17.
For `N.N.[Cl][Pt][Cl]` [cisplatin], in test [1], the “criterion dose (CR)” value was 400 ng/mL, the “number of resistant cell lines” value was determined as 11 and the “number of sensitive cell lines” value is 16.
`O=c1[nH]cc(F)c(=O)[nH]1` [compound 19893]: the Clinical response rate with breast cancer was 44.4. For the same compound, the Clinical response in the test on bladder cancer is recorded as 23.1.
For `CC(=O)O[C@@]12CO[C@@H]1C[C@H](O)[C@@]1(C)C(=O)[C@H](O)C3=C(C)[C@@H](OC(=O)[C@H](O)[C@@H](NC(=O)OC(C)(C)C)c4ccccc4)C[C@@](O)([C@@H](OC(=O)c4ccccc4)[C@H]21)C3(C)C` [docetaxel], in the test on breast cancer patients, the “number of non-responder patients” value is listed as 13 and the “number of responder patients” value is 11.
`CC/C(=C(\c1ccccc1)c1ccc(OCCN(C)C)cc1)c1ccccc1` [tamoxifen]: in test [3], the “number of non-responders (recurrence <50 months)” value amounted to 16 and the “number of responders (long-term survival >130 months)” value is listed as 11.
